Measurements as given in patent US7319090B2, “Methods of treating cerebral ischemia” (University of North Carolina at Chapel Hill, priority 2002, dated 2008).
Where a SMILES comes first, the peptide text is derived from it. Where no end group is shown, it is not given here. [ ]: non-standard residue; d: D form. Ala(indol-4-yl) = N[C@@H](Cc1cccc2[nH]ccc12)C(=O)O; NMeR = CN[C@@H](CCCNC(=N)N)C(=O)O; Tle = CC(C)(C)[C@H](N)C(=O)O; dOrn = NCCC[C@@H](N)C(=O)O; neo‑Trp = not defined here

What was measured:
Assay type in all cases: in vivo, rat
Sprague-Dawley rats [1] = assay: Metabolism and heat loss in a direct calorimeter after NT77; conditions: 5.0 mg/kg i.p.; data not shown
Protocol: Oxygen consumption and dry heat loss were measured in naive rats implanted with radiotransmitters and housed in a direct calorimeter. The internal dimensions of the calorimeter were 30.5 cm×30.5 cm×30.5 cm. The calorimeter was used to measure the rate of dry heat loss (i.e., thermal conductance) from the rats using thermoelectric sensors in the calorimeter walls. The calorimeter was housed inside a temperature-controlled chamber maintained at 23.5° C. The inside of the calorimeter was dimly illuminated with LED lights (total power=0.2 Watts). […]
A mass flow controller was used to meter dry air at a constant flow rate (2.7 liters/minute; STP) into the calorimeter. […] Percent oxygen, dry heat loss, air flow rate, and calorimeter temperature were monitored at 1 minute intervals by a data acquisition system (Dianachart PC acquisitor). […] (W/C) was calculated by dividing the value of dry heat loss at 1 minute intervals by the difference between core and ambient temperature. […]
A naive rat was placed in the wire-mesh cage which was then placed inside the calorimeter at approximately 9 a.m. […] After 115 minutes, the percent oxygen of the inflowing air was measured for another 5 minutes for calibration purposes but the rat was not disturbed. […]

Sprague-Dawley rats [2] = assay: Behavioral thermoregulation in a temperature gradient (selected Ta, core temperature, motor activity) after NT77
Protocol: Male rats of the Sprague-Dawley strain at 60 days of age were obtained from Charles River Laboratories (Raleigh, N.C.). The animals were housed individually in acrylic cages lined with wood shavings at an ambient temperature (Ta) of 22° C., relative humidity of 50%, and a 12 hour light:12 hour dark photoperiod (lights were turned on at 6 a.m. and turned off at 6 p.m.). Core temperature and motor activity were monitored in undisturbed rats using radio telemetry (Data Sciences International, St. Paul, Minn.). Details of the telemetry system are described in Gordon, C. J., 24-hour control of body temperature in the rat: I. Integration of behavioral and autonomic effectors, Am. J. Physiol. 267, […]-[…], 1994. Briefly, rats were anesthetized with sodium pentobarbital (50 mg/kg; intraperitoneally) and an incision was made for the implantation of the transmitter (TAIOTA-F40) into the abdominal cavity. The abdominal muscle was sutured and the skin was closed with wound clips. […] The behavioral thermoregulatory response to NT77 was assessed by measuring selected ambient temperature (Selected Ta) of the unrestrained rats when housed in a temperature gradient (Gordon, C. J., 24-hour control of body temperature in the rat: I. Integration of behavioral and autonomic effectors, Am. J. Physiol. 267, […]-[…], 1994). Rats were placed in a temperature gradient and allowed to behaviorally select from a range of ambient temperatures (Ta) while core temperature (Tc) was monitored by radiotelemetry. Selected Ta, core temperature (Tc), and motor activity were monitored at 1 minute intervals. […] Selected Ta was measured by photocells positioned at 10 cm intervals that detected the position of the rat in the gradient and automatically compared the position to the air temperature measured by thermocouples placed immediately outside the wire-mesh cage. Motor activity was calculated by measuring the change in position of the rat in the gradient at 1 minute intervals. […] The behavioral and core temperature data were recorded at 1 minute intervals throughout the experiment. […]

[3] = tested on: Sprague-Dawley rats resuscitated from asphyxial cardiac arrest; assay: Neurological deficit score 14 days after ROSC (NT69L)
Protocol: A final neurological deficit score (NDS) was performed 14 days after ROSC by an evaluator blinded to the insult and therapeutic intervention. Rats were tested for coordination (balance beam walk placing test, depth perception, righting reflex) and for motor and sensory function as described in Katz et al., Outcome model of asphyxial cardiac arrest in rats, J. Cereb. Blood Flow Metab., 1995, 15:1032-1039. The NDS includes a range from 0 (indicating normal) to 100 (indicating brain dead).
(§1) Physiological variables (arterial blood gas, glucose, and MAP) between groups were compared by a one-way analysis of variance (ANOVA). All values were reported as means±standard deviation unless otherwise stated. A one-way analysis of variance (ANOVA) was used to determine the between-group differences in latency time for finding the platform during the MWM on day 14. When an overall significant difference was found, a Tukey post-hoc analysis was used to determine specific between-group differences. Performances on the MWM (learning curve) between days 10 and 14 were compared between groups by a repeated measure ANOVA. Neurological deficit scores between groups were assessed by Kruskal-Wallis analysis. For all analyses, alpha was set at a p<0.05 level of significance.

[4] = tested on: Sprague-Dawley rats resuscitated from asphyxial cardiac arrest
Description: Sixteen male Sprague-Dawley rats (Harlan; Madison, Wis.) weighing 300±50 grams were randomized to a control group (saline) or treatment group (NT69L) after resuscitation from asphyxial cardiac arrest. The outcome model of asphyxial cardiac arrest in rats was used to induce the cerebral insult in all rats (Katz et al., Outcome model of asphyxial cardiac arrest in rats, J. Cereb. Blood Flow Metab., 1995, 15:1032-1039). Under titrated inhaled isoflurane anesthesia, brain telemetric probes (Mini-Mitter; Sunriver, Oreg.) were implanted three days before the cerebral insult. […] On the day of the cerebral insult, rats were again anesthetized with inhaled isoflurane anesthesia, intubated, and mechanically ventilated. A tail artery was cannulated for continuous blood pressure monitoring and blood gas analysis, while the jugular vein was cannulated for intravenous drug administration. Intravenous vecuronium (2 mg/kg intravenous) and cessation of mechanical ventilation were used to induce apneic asphyxia. Asphyxia led to cardiac arrest (i.e., mean arterial pressure (MAP)<10 mm Hg and a pulse pressure of 0 mm Hg) within approximately 3 minutes; the cardiac arrest was maintained until resuscitation. Eight minutes after asphyxia, the rats were resuscitated with mechanical ventilation (100% oxygen), 0.005 mg/kg intravenous epinephrine, and chest compressions until a mean arterial pressure of 60 mm Hg was produced and maintained by a spontaneously beating heart for more than 10 seconds. Immediately after restoration of spontaneous circulation (ROSC), the rats were placed in an incubator that maintained an ambient temperature of 31.6° C. […] Ten minutes after ROSC, NT69L (0.5 mg/kg) […] or saline 3 mL/kg was administered intravenously. The ventilator was adjusted to normalize temperature-corrected arterial carbon dioxide before the insult and for two hours after ROSC. Two hours after ROSC, spontaneously breathing rats were extubated and maintained in the incubator for 24 hours. Rats were handled daily after the experiment and had free access to food and water.
as §1

[5] = tested on: free-roaming, unanesthetized rats; assay: Pilot: brain temperature of free-roaming unanesthetized rats without cardiac arrest given NT69L; conditions: no cardiac arrest, room temperature 23° C., i.v.
Protocol: In separate pilot experiments, four rats were instrumented for placement of temperature probes and intravenous catheters as described above. Three days after recovery from anesthesia, NT69L was administered intravenously to two free-roaming, unanesthetized rats at room temperature (23° C.). In the same environment and at the same time, two rats were given a similar volume of saline for comparison.

[6] = tested on: Sprague-Dawley rats resuscitated from asphyxial cardiac arrest; assay: Morris Water Maze on days 10-14 after ROSC (NT69L)
Protocol: On days 10-14 after ROSC, the rats were accessed for performance in a Morris Water Maze (MWM). Evaluation was begun on day 10 to ensure that there was complete recovery from anesthesia and the surgical procedures based on prior pilot studies (data not shown). A six foot diameter round pool was filled with water (26° C.) to a depth of 20 cm, 1 cm above an 11-cm diameter clear glass escape platform. The escape platform was invisible to a swimming rat and was placed in the northeast quadrant of the pool. The pool had large visible and distinct geometric shapes placed in a north, south, east, and west distribution on the side of the pool wall so that a swimming rat could easily visualize the orientation markers. The pool was situated in a room with black walls and ceiling to minimize external distractions for the rats. Rats were initially placed in the pool (without the escape platform) for 2 minutes to become acclimatized to the new swimming environment. The rats were then placed on the escape platform for 30 seconds to allow for self orientation in the pool. Next, the rats were randomly placed in each of the four geographic outer regions of the pool and their travel path, swim speed, and time required to locate the hidden platform (latency time) were recorded. Rats performed four swim trials on each day with a maximum swim time of 2 minutes, at which time the trial was terminated if a rat was unable to locate the platform. A 3-minute rest period was provided between trials. In addition to the rats that sustained cardiac arrest (n=16), nine sham rats were surgically instrumented and allowed to recover for ten days before being assessed for performance in the MWM.
as §1

[7] = intravenously after resuscitation from cardiac arrest
[8] = NT69L 0.5 mg/kg i.v., ambient 31.6° C.
[9] = one NT69L group rat, day 14 after resuscitation

effect on motor activity in the calorimeter (Sprague-Dawley rats [1])	effect on motor activity (Sprague-Dawley rats [2]; 5.0 mg/kg i.p., temperature gradient)	core temperatures and selected Ta's during the night after treatment (Sprague-Dawley rats [2]; 5.0 mg/kg i.p., data not shown)	Molecule	loss of initial body weight (Sprague-Dawley rats [2]; day after treatment, saline 1.6%) [%]	neurological deficit score (NDS) ([3]; 14 days after ROSC, 0 normal to 100 brain dead, control 30±10)	neurological outcome (conclusion) [3, 7]	duration of mild hypothermia (mean) ([4]; NT69L 0.5 mg/kg i.v.) [min]	duration of mild hypothermia (median) ([4]; NT69L 0.5 mg/kg i.v.) [min]	duration of mild hypothermia (range) ([4]; NT69L 0.5 mg/kg i.v.) [min]	time until brain temperature dropped below 35° C. after administration (mean) [4, 8]	time until brain temperature dropped below 35° C. after administration (range) [4, 8] [min]	rats with ROSC that survived 14 days ([4]; each group, same as control)	hypothermia produced (conclusion) [4, 7]	hypotension produced ([4]; rat, in vivo)	brain temperature versus saline rats [5]	latency time in Morris Water Maze ([6]; fourteen days after ROSC, control 45±26, sham 10±3) [s]	distance traveled, sample path of one rat (FIG. 1) [6, 9] [cm]	latency time, sample path of one rat (FIG. 1) [6, 9] [s]	rates of change of latency time over days 10-14 versus control ([6]; p=0.15 repeated-measures ANOVA)	swimming speed during MWM testing ([6]; sham 27±2, control 25±1) [cm/s]
no discernable effect	no effect	normal	CC(C)C[C@H](NC(=O)[C@@H](NC(=O)[C@H](Cc1cccc2[nH]ccc12)NC(=O)[C@@H]1CCCN1C(=O)[C@@H](CCCN)NC(=O)[C@@H](N)CCCNC(=N)N)C(C)(C)C)C(=O)O [NT77] (H-R[dOrn]P[Ala(indol-4-yl)][Tle]L-OH)	2.4																
			NT69L: neurotensin analog, SEQ ID NO: 16, positions 8-13: N-methyl-Arg, L-Lys, L-Pro, L-neo-Trp, tert-Leu, L-Leu ([NMeR]KP[neo‑Trp][Tle]L; reading uncertain)		3±3	improved neurological outcome	300 ± 100	367	20 to 400	13+3 minutes	8 to 15	Seven out of eight	rapid and prolonged mild hypothermia	mild and transient	drop in brain temperature	22 ± 8	225	9	no difference	26 ± 1
